Source: a melting point compilation (Tetko et al.; mined from patent text by program, amines drawn as free bases though some values may be those of a salt)

SMILES	melting point [°C]
Cc1cccc(NC(=O)NCC(=O)N(CC(=O)NCc2ccccc2)c2ccccc2)c1	204
CC1=C(C(=O)O)C(c2ccccc2[N+](=O)[O-])C(C(=O)OCCC#N)=C(C)N1 (stereo unspecified)	132 to 134
Cc1nc(Br)cnc1N	51 to 52
CCOC(=O)c1cnncc1NC(=O)Cc1c(F)cc(F)cc1F	143 to 144
C[C@@H](C(N)=O)c1ccc(NS(=O)(=O)c2ccc(Cl)cc2)cc1	150 to 153
C=Cc1nc(Cl)nc(Cl)c1OC	60 to 61
COc1cc(OC)nc(Oc2cccnc2CO)n1	115
O=C(O)c1cccc(-c2cccn3cc(Cc4cccc(C(F)(F)F)c4)nc23)c1	179 to 180
COc1cc(OC)cc(C(=CC#N)c2ccc(OC)c(F)c2)c1	91 to 93
O=[N+]([O-])c1cn2c(n1)OC[C@@H](OCc1csc(-c3ccc(OC(F)(F)F)cc3)n1)C2	140 to 141
O=C1CCC2C=C(c3cccnc3)C=C(F)C2N1 (stereo unspecified)	203
CCNc1ncnc(NCC)c1[N+](=O)[O-]	80 to 81
Cc1nc(N2CCN(Cc3ccc(F)cc3)C2=O)sc1C(=O)NCc1cnn(C)c1	173 to 175
[N-]=[N+]=NCC(O)COc1ccc(-c2ccccc2)cc1 (stereo unspecified)	72.2 to 73.9
CC(C)(C)OC(=O)NC1Cc2ccccc2C1Oc1ccccc1 (stereo unspecified)	99 to 101
Nc1cc(-c2ccccc2)c(=O)n2c1-c1sccc1CC2	180 to 182
COC(=O)c1ccc(COc2cc(C(C)(C)C)nn2Cc2ccc(C(=O)OC)cc2)cc1	93 to 94
OCC1CNC2Cc3c[nH]c4cccc(c34)C2(O)C1 (stereo unspecified)	145 to 149
COC(=O)Cc1sc(N=C2SC[C@@H]3Cc4ccccc4CN23)nc1C	66
CNC(=O)NCCn1c(-c2ccc(CN3C(C)COCC3C)cc2)csc1=Nc1ccc(F)c(C)c1 (stereo unspecified)	116 to 119
COc1ccc2c(c1)CC(=O)C2	74 to 78
Cc1ccc(C(NC(c2ccccc2)c2ccccc2)P(O)O)cc1 (stereo unspecified)	208 to 209
CC(C)Oc1ccc2nc3ccc(C#N)cn3c(=O)c2c1	234 to 236
O=C(O)[C@H](Cc1cccc(OC(F)(F)C(F)F)c1)[C@@H](O)c1ccc(Oc2ccccc2)cc1 (racemic)	109 to 110
CC(=O)NNC1=Nc2sc(Cl)cc2C(c2ccccc2Cl)=NC1	211 to 213
CCOC(=O)N(C(=O)N1CC(c2ccc(Cl)cn2)C(c2ccc(F)cc2)=N1)c1ccc(OC(F)(F)F)cc1 (stereo unspecified)	160 to 161

SMILES	melting point [°C]
CC(NC(=O)C1=C(C(=O)Nc2cc(OC3CCCC3)c(Cl)cc2F)CCCC1)c1cccc2ccccc12 (stereo unspecified)	198 to 201
CCN1C=C(C(=O)O)C(=O)CC1c1ccc(OC)c(OC)c1 (stereo unspecified)	182 to 183
O=c1c2c(Cl)cc(Cl)cc2n(Cc2ccccc2)c(=O)n1CC1CCCCC1	147 to 149
CN(C)Cc1ccc(C=CC(=O)O)s1	224 to 225
CC(C)(C)Oc1ccc(CCC(=O)O)cc1	29 to 31
COc1cc(C(=O)c2c[nH]c(-c3cn(S(=O)(=O)c4ccccc4)c4ccccc34)n2)cc(OC)c1OC	110 to 112
COc1cc(C(CCC(C(=O)O)c2cc(OC)c(OC)c(OC)c2)C(=O)O)cc(OC)c1OC (stereo unspecified)	226 to 233
Cc1ccc(S(=O)(=O)OC[C@H]2COc3ccc([N+](=O)[O-])cc3O2)cc1	138
Cc1ccc2c(Cl)c3ccccc3nc2c1	117 to 118
COC(=O)CCCc1cc2cc(C(F)(F)F)ccc2n1S(=O)(=O)c1ccc2nc(C)oc2c1	78 to 82
O=C(O)c1cc(C#Cc2ccccc2)cc2c1NCCC2	187 to 188
Cc1cc(C)c2ncc(NC(=O)Cc3cc(C(C)(C)C)c(O)c(C(C)(C)C)c3)c(-c3ccccc3Cl)c2c1	189 to 190
O=C(N[C@@H](Cc1c[nH]c2ccccc12)C(=O)O)c1ccc(Br)cc1	162 to 163
CC(=O)Nc1cc(C)cc(OCc2ccccc2)c1C	139 to 140
N#Cc1ccc(NC(=O)c2ccnc(SCc3ccc(F)cc3)c2)cc1	160 to 162
Cc1ccc(-c2ccc(C(=O)Nc3ccc4nc(CN5CCCC5)ccc4c3)cc2)cc1	192 to 193
O=C(NCc1ccccc1)Nc1nnc(C(=O)OCc2ccccc2)s1	188 to 192
COc1ccc(CN2Cc3cc(N(C)C)ccc3N3CC(=O)N=C23)cc1	196 to 200
O=C1NC(CN2CCN(c3ccccc3)CC2)Cc2c[nH]c3cccc1c23 (stereo unspecified)	184 to 185
CN(C)S(=O)(=O)NC(c1ccccc1)P(=O)(Oc1ccccc1)Oc1ccccc1 (stereo unspecified)	193 to 196
Nc1cccc(-c2ccc(CCN3CCN(C(=O)NC4CCCCC4)CC3)cc2)n1	180 to 182
Cc1cccc(NC(=O)CCCCl)c1CNc1cccn2c(C)c(C)nc12	138 to 140
O=C(O)CCc1ccnc(-c2nc(=O)c3ccc(Br)cc3s2)c1	258 to 259
CN1C(=O)Cc2cc(CCCl)ccc21	136
CN(C)N(C)C(=O)NC1c2ccccc2Oc2ccccc21	141 to 142
N#CC(C#N)=CCOCCc1ccccc1	135 to 136

SMILES	melting point [°C]
COCCNC(N)=Nc1nc(-c2cccc(CNC(C)=O)c2)cs1	123 to 124
COc1cc(C(C)=O)ccc1SCCCN1CCC(c2noc3cc(F)ccc23)CC1	93 to 95
COc1ccc(C#N)c(F)c1O	198 to 200
CC(C)(O)C#Cc1c(F)c(F)c(-c2c(F)c(F)c(C#CC(C)(C)O)c(F)c2F)c(F)c1F	119 to 121
CCOc1cccnc1CSCCN=C(NC)NC#N	126 to 128
CC(=O)OCc1ccc(-c2ccccc2)cn1	71 to 72
Oc1nc2ccc3sccc3c2nc1O	187
S=C1NCCSc2ccsc21	138 to 139
CCC1CCCCN1C(=O)C=Cc1c(-c2cccc(N(C)C)c2)nn2ccccc12 (stereo unspecified)	180 to 184
O=C(O)c1cccc(C(=O)O)c1[N+](=O)[O-]	100 to 101
COC[C@](C#N)(C(=O)N1CCN(c2cnccn2)CC1)[C@H](c1ccccc1OC)c1cccc2ccccc12	149
O=S(CCCCCOc1ccc(C2=C(c3ccccc3)CCCc3cc(O)ccc32)cc1)Cc1cccs1 (stereo unspecified)	174 to 177
Cn1c(-c2ccccc2)nc2ncnn2c1=S	246 to 248
O=C1Nc2cc(Cl)ccc2C(=O)C1c1cc2ccccc2o1 (stereo unspecified)	342
Cc1[nH]cnc1/C=C1\CCc2c(c3ccc(F)cc3n2C)C1=O	290 to 295
CCn1ncc2c(NCC3CCCCC3)c3ccc([N+](=O)[O-])cc3nc21	205 to 207
O=[N+]([O-])c1cc2c(c(Cl)c1OCc1ccccc1)CCCC2	80 to 82
COC(=O)Cc1ccc(-c2cc(O)c3ccccc3c2O)n1C	200 to 201
COc1ccc(-c2ccc(C=NO)cc2)cc1OC1CCCC1	153
Cc1cc(-c2ccc(C(F)(F)F)cc2)cn2c(-c3nc(-c4ccc(S(N)(=O)=O)s4)no3)cnc12	285
CCOC(=O)C(=CNc1cccc(OCC)n1)C(=O)OCC	58 to 60
S=c1n(CNCc2ccc(Cl)cc2)nc(-c2ccncc2)n1-c1ccccc1	222 to 223
NC1=NN(c2ccc(C(=O)C(F)(F)F)cc2)C(c2ccccc2)C1 (stereo unspecified)	214 to 216
N#Cc1ccc(-c2ccc(OCC(COc3ccccc3)N(O)C=O)cc2)cc1 (stereo unspecified)	133 to 135
CN1C(=O)CC[C@]2(C)c3ccc(Sc4nc5c(Br)cccc5s4)cc3CC[C@@H]12	206 to 210
CCCN(c1ccccc1)S(=O)(=O)c1ccc(C(CC2CCCC2)C(=O)Nc2nc3ccc(OC)nc3s2)cc1 (stereo unspecified)	83 to 85

SMILES	melting point [°C]
Cc1ccc(-c2c(NS(=O)(=O)c3ccc(C(C)(C)C)cc3)nc(-c3cccs3)nc2OCCO)cc1	> 300
OCCc1c2ccccc2cc2ccccc12	85 to 87
O=C1Nc2ccc3ccccc3c2CCC1(Cl)Cl	187 to 191
COC(=O)CC[C@@H](Cc1ccc(OCc2ccccc2)cc1)NC(=O)CCCCCCc1ccccc1	94.8 to 95.9
CCOC(=O)c1ccc2nnc(-c3ncc([N+](=O)[O-])n3C)n2n1	180 to 182
COc1ccc(-n2nc(Cl)cc2-c2ccc(OCCNS(C)(=O)=O)cc2)cc1	117 to 119
CN(C)CCCNc1nc2cc(Cl)c(Cl)cc2nc1-c1ccccn1	59 to 61
Cc1cc(C)c(CC(=O)c2ccc(C(C)C)c(OS(N)(=O)=O)c2C(C)C)c(C)c1	159 to 161
N#Cc1ccc(N2CCC(=O)CC2)c2ccccc12	143 to 144
NS(=O)(=O)c1cc(C(=O)O)cc([N+](=O)[O-])c1Nc1ccc(Cl)cc1	241 to 243
O=C(CCl)Nc1ccc2cc3ccc(NC(=O)CCl)cc3nc2c1	95 to 100
CCn1cc(C(=O)O)c(=O)c2cc(F)c(-c3ccncc3)nc21	286 to 288
CC(=O)OCc1nc2cc(Cl)c(CBr)cc2c(=O)[nH]1	190 to 195
CS(=O)(=O)N1CCC2(CC1)OCCO2	107 to 109
CC(C)C(c1cncnc1C(F)(F)F)N(C)C(=O)Cc1ccccc1 (stereo unspecified)	106 to 109
CCCCCC(COc1ccc(C(=O)O)cc1)c1ccc2c(c1)OCCC2(C)C (stereo unspecified)	91.5 to 93.3
CC(=O)OC(C)Cc1ccc(-c2ccc(C(C)=O)cc2)cc1 (stereo unspecified)	60 to 61
CCCCC(=O)Nc1c(OC)cccc1[N+](=O)[O-]	113 to 114
CN1CC(CCn2cccn2)Oc2ncccc2C1=O (stereo unspecified)	132 to 134
Cc1cc(OCC(=O)c2ccc(C(C)C)cc2)c(C)c(C)c1Br	71 to 72
COc1ccc2[nH]c3c(c2c1)C(=O)/C(=C/c1nc[nH]c1C)CC3	133 to 135
CC(C)(C)c1ccc(Nc2cccc(Br)n2)c(N)c1	125 to 128
COCCc1ccc(OCC(O)CNCCNC(=O)C2CCCOC2)cc1 (stereo unspecified)	107 to 108
